Test results from ChEMBL document CHEMBL1201862, “PubChem BioAssay data set” (2004).
The source made the active and inactive calls.

Assays:
INS1 = experiment: INS-1E survival protection against cytokine death – cell-based, luminescence, retest, dose response (AID 449756); type: functional; details: Rattus norvegicus;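 further: cell death triggered by IL-1 beta plus TNF-alpha plus IFN-gamma mixture; protective hits raise ATP signal compared with cytokine alone wells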
[1] = target: Neurotensin receptor type 1 (Homo sapiens, UniProt P30989); type: functional;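 further: Image-based confirmatory dose-response assay measuring agonist activity at NTR1; NTR1-expressing U2OS osteosarcoma cells imaged for beta-arrestin GFP spot formation; agonist potency where compounds increase beta-arrestin recruitment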
Neurotensin receptor type 1, sequence (P30989 whole entry): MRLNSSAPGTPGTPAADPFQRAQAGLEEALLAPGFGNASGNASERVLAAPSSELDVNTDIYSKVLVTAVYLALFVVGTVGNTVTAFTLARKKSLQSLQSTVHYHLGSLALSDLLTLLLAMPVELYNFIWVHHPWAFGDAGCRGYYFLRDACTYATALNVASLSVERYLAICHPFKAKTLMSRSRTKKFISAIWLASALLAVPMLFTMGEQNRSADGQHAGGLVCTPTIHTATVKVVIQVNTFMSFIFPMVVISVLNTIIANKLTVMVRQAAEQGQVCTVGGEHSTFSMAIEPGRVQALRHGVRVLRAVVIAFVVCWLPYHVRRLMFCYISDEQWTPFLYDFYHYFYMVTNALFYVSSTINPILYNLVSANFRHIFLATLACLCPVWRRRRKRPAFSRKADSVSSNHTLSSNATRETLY

[2] = target: T1, Delta-type opioid receptor (Homo sapiens, UniProt P41143); experiment: HTS Image-Based Screen for Antagonists of the DOR Receptor. [Related pubchem assays (depositor defined):AID1777, AID1785, AID1786, AID2133]; type: functional
T1 sequence (P41143 whole entry): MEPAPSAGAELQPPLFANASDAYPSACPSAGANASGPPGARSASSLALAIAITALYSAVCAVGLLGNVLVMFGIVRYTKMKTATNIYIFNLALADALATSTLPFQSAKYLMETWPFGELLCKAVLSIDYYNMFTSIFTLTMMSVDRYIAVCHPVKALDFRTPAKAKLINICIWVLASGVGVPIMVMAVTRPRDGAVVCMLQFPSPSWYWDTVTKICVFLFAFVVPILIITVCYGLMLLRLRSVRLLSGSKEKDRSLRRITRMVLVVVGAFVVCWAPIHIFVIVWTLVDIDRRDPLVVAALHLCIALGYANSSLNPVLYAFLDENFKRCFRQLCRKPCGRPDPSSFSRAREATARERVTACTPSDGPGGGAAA

[3] = target: T1, Delta-type opioid receptor; experiment: HTS Image-Based Screen for Agonists of the DOR Receptor. [Related pubchem assays (depositor defined):AID1777, AID1786, AID2133]; type: functional
Mu-type opioid receptor = Mu-type opioid receptor (Homo sapiens, UniProt P35372); experiment: HTS Image-Based Screen for Agonists of the MOR Receptor. [Related pubchem assays (depositor defined):AID1777, AID1785, AID1786, AID2133]; type: functional;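 further: imaging of beta-arrestin GFP recruitment into spots after receptor activation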
Mu-type opioid receptor, sequence (P35372 whole entry): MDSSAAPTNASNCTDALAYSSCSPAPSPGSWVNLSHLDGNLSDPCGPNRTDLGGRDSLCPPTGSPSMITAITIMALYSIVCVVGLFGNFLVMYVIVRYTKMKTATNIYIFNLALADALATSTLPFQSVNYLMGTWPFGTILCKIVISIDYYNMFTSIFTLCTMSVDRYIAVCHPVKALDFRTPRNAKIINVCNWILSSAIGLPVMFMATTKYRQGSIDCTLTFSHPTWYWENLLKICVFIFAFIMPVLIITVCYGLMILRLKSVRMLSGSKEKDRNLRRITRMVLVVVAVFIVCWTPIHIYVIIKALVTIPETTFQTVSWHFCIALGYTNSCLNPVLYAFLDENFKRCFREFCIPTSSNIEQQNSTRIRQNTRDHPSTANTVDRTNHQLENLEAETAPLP

[4] = target: T2, Kappa-type opioid receptor (Homo sapiens, UniProt P41145); type: functional
T2 sequence (P41145 whole entry): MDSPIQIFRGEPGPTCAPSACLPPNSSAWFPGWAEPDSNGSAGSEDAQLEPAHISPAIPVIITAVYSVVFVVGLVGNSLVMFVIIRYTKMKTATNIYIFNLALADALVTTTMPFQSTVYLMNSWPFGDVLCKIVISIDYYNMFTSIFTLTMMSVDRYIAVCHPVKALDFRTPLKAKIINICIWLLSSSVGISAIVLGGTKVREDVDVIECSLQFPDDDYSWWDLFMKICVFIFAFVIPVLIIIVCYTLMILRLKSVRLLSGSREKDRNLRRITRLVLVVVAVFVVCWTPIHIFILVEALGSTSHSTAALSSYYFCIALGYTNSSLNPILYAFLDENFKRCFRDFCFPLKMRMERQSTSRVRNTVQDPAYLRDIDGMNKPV

[5] = target: T2, Kappa-type opioid receptor; type: functional; remark: listed apart in the source
[6] = target: Scavenger receptor class B member 1 (Mus musculus, UniProt Q61009); experiment: mouse SR-BI DiI-HDL uptake blockers – ldlA[mSR-BI] cells, fluorescence, cherry pick, dose response (AID 493194); type: functional, cell-based;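 further: cellular uptake of fluorescent DiI-labeled HDL measured as cell fluorescence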
Scavenger receptor class B member 1, sequence (Q61009 whole entry): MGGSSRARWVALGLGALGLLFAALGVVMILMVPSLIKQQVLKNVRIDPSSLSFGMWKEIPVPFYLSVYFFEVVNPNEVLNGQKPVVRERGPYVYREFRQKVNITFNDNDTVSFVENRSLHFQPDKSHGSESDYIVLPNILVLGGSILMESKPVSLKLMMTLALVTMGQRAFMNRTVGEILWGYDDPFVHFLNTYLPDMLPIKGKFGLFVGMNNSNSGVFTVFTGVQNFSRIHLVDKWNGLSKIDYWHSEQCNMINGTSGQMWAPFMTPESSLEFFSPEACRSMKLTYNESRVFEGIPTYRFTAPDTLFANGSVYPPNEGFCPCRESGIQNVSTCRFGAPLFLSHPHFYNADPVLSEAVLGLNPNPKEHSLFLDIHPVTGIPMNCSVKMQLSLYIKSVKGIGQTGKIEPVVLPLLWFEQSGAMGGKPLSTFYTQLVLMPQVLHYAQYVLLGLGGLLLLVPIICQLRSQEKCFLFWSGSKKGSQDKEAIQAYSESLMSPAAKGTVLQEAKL

[7] = target: G2/mitotic-specific cyclin-B1 (Homo sapiens, UniProt P14635); experiment: HeLa cell cycle G2/M accumulation – FACS, mechanism study for Wee1 degradation inhibitor project, late-stage follow-up, panel member Cyclin B Degradation (AID 2088)
G2/mitotic-specific cyclin-B1, sequence (P14635 whole entry): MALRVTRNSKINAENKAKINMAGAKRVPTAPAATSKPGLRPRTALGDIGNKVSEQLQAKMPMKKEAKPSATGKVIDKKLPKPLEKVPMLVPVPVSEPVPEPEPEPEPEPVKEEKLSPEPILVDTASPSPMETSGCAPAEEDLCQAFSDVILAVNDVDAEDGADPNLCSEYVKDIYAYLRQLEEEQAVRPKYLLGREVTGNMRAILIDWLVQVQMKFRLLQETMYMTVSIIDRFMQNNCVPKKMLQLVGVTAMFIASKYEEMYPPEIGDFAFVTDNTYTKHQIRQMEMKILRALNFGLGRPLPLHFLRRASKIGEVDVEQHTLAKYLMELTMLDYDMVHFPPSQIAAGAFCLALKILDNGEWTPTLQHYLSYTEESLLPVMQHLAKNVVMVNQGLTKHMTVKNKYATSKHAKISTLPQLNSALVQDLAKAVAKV

Wee1-like protein kinase = Wee1-like protein kinase (Homo sapiens, UniProt P30291); experiment: HeLa cell cycle G2/M accumulation – FACS, mechanism study for Wee1 degradation inhibitor project, late-stage follow-up, panel member Wee1 Degradation (AID 2088)
Wee1-like protein kinase, sequence (P30291 whole entry): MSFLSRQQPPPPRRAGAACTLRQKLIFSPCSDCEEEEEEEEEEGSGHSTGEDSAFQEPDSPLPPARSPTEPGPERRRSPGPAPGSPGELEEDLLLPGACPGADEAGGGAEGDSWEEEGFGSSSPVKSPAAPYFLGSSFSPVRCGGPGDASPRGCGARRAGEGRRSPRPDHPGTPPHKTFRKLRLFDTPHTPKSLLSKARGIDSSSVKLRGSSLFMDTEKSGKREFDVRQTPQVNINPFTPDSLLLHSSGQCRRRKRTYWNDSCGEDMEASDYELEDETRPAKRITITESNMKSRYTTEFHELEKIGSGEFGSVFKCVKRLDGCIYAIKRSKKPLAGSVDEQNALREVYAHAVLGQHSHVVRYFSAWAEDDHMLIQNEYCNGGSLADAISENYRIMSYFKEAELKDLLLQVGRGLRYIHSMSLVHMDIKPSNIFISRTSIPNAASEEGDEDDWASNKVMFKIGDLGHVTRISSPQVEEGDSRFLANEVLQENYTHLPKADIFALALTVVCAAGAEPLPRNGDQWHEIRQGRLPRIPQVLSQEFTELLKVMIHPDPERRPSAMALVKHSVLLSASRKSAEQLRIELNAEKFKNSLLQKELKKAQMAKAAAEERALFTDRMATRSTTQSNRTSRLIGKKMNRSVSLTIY
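Wherever IC50 is given: U2OS cells expressing DOR stimulated with 100 nM SNC80 agonist.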

## c1ccc(C(c2ccccc2)N2CCN(c3nc4ccccc4n4cnnc34)CC2)cc1
INS1
  AC50: 4.56 µM (active)
[1]
  EC50: 26.4 µM (inactive)

## Cc1ccc(Cl)cc1NC(=S)N(Cc1cccs1)C1CCCC1
[2]
  IC50: > 32 µM (inactive)
[3]
  EC50: > 32 µM (inactive)
Mu-type opioid receptor
  EC50: > 32 µM (inactive)
[4]
  EC50: 14 µM
[5]
  EC50: 13.1 µM

## Cc1ccccc1NC(=O)NCC1CCN(c2ccc(S(=O)(=O)N3CCOCC3)cc2)CC1
[6]
  AC50: 1.04 µM (active)

## Cc1cc(O)nc(-n2nc(C)cc2NC(=O)c2cccc(Br)c2)n1
[7]
  EC50: > 49.7 µM (inactive)
Wee1-like protein kinase
  EC50: > 49.7 µM (inactive)
